Data: article PMC9822074, “Triterpenic Acid Amides as Potential Inhibitors of the SARS-CoV-2 Main Protease” (Molecules, 2022)

Target: T1, SARS-CoV-2 main protease (Mpro, 3CLpro) (Severe acute respiratory syndrome coronavirus 2, UniProt P0DTD1)
T1 construct: gene rep
Assay: FRET peptide cleavage assay
Assay type: biochemical
Text: FRET peptide cleavage assay on SARS-CoV-2 main protease (Mpro, 3CLpro)

Row | SMILES | IC50 [µM]
1 | C=C(C)[C@@H]1CC[C@]2(C(=O)NCCOc3ccc(CCOc4ccc(C[C@H](OCC)C(=O)O)cc4)cc3)CC[C@]3(C)[C@H](CC[C@@H]4[C@@]5(C)CCC(=O)C(C)(C)[C@@H]5CC[C@]43C)[C@@H]12 [1a] | 100 ± 5
2 | CCO[C@@H](Cc1ccc(OCCc2ccc(OCCNC(=O)[C@]34CC[C@@H](C(C)C)[C@@H]3[C@H]3CC[C@@H]5[C@@]6(C)CCC(=O)C(C)(C)[C@@H]6CC[C@@]5(C)[C@]3(C)CC4)cc2)cc1)C(=O)O [1b] | 100 ± 5
3 | CCO[C@@H](Cc1ccc(OCCc2ccc(OCCNC(=O)[C@]34CC[C@@H](C)[C@H](C)[C@H]3C3=CC[C@@H]5[C@@]6(C)CC[C@H](O)C(C)(C)[C@@H]6CC[C@@]5(C)[C@]3(C)CC4)cc2)cc1)C(=O)O [1d] | 100 ± 5
4 | CCO[C@@H](Cc1ccc(OCCc2ccc(OCCNC(=O)[C@]34CC[C@@H](C)[C@H](C)[C@H]3C3=CC[C@@H]5[C@@]6(C)C[C@@H](O)[C@H](O)C(C)(C)[C@@H]6CC[C@@]5(C)[C@]3(C)CC4)cc2)cc1)C(=O)O [1e] | 25 ± 3
